One assay concerns the target PD-1/PD-L1 (Homo sapiens, UniProt Q9NZQ7). In words: PD-1/PD-L1 biochemical protein-protein interaction assay (ALPHA). Particulars: 0.3 nM His tagged PD-L1, 2.5 nM biotinylated Fc-PD-1, 60 minutes at 25° C., read-out: IC50 PD-L1-PD-1 Alpha IC50-mono PD-L1-fcP-D1. The format is binding. As to the method: Biological Activity PD-1/PD-L1 & CTLA/CD80 Biochemical Protein-Protein Interaction Assay
Compounds were tested in biochemical protein-protein interaction assays to determine if they can specifically block the interaction between the extracellular domains of PD-1/PD-L1 or CTLA/CD80. Binding of the protein pairs is measured using a bead based Amplified Luminescent Proximity Homogeneous Assay (ALPHA) platform. Binding of each protein pair results in proximity of the donor and acceptor beads which leads to an increase in ALPHA signal. Disruption of the protein-protein interaction with a test compound results in a decrease in ALPHA signal. Assays are performed in 25 mM Hepes (pH 7.4), 150 mM NaCl, 3.4 mM EDTA, 0.005% Tween 20, and 0.01% BSA. Final protein concentration in the assays were 0.3 nM (His tagged PD-L1), 2.5 nM (biotinylated Fc-PD-1), 1 nM (His tagged CTLA4) and 1 nM (biotinylated CD80). After an assay reaction time of 60 minutes at 25° C., binding was measured with addition of 20 μg/mL ALPHA assay acceptor beads (anti-His coated) and […] ALPHA assay donor beads (streptavidin coated). IC50 values were calculated from the fit of the dose-response curves to a four-parameter equation. Representative data are shown below in Table 1.

In another assay the target is T1, PD-1/PD-L1 interaction (Homo sapiens, UniProt Q9NZQ7).
T1 construct: expressed in transfected cells; host or cells: CHO cells (aAPC-PD-L1) co-cultured with Jurkat cells overexpressing PD-1 and an NFAT-luciferase reporter
In words: PD-1/PD-L1 NFAT reporter co-culture assay. The format is cell-based. Particulars: Jurkat PD-1 NFAT-luciferase cells co-cultured with aAPC-PD-L1 CHO cells, 6 hrs at 37° C.; read-out: EC50 NFAT Luciferase. The procedure, abridged: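 Jurkat cells overexpressing PD-1 with NFAT-luciferase mixed with compounds and plated onto CHO aAPCs expressing anti-CD3 and PD-L1, RPMI with 2% FBS. Co-culture 6 h at 37 °C; luminescence read with ONE-Glo. EC50 from four-parameter fit.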

The structures appear in SMILES notation.

T1 sequence (Q9NZQ7 19-290): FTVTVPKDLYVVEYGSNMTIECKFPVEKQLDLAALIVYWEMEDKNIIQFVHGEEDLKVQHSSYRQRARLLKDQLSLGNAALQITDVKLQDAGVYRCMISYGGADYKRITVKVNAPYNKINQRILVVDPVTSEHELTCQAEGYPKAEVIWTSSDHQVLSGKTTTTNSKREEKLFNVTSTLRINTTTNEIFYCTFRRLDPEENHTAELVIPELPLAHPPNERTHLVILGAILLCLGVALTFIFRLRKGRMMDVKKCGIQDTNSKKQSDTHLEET
Sequence of PD-1/PD-L1 (Q9NZQ7 19-238 limits assumed): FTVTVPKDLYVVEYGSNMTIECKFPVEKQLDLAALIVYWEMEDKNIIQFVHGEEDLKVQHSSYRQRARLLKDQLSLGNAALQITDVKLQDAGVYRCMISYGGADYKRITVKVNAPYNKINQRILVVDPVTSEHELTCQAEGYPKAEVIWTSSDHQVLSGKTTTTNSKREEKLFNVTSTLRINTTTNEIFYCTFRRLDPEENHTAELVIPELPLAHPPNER

Regarding `Cc1c(COc2cc(OCc3cncc(C#N)c3)c(CNCc3ccccn3)cc2Br)cccc1-c1cccc(COc2cc(OCc3cncc(C#N)c3)c(CNCc3ccccn3)cc2Br)c1C` [Example 275, 5,5′-((((((2,2′-dimethyl-[1,1′-biphenyl]-3,3′-diyl)bis(methylene))bis(oxy))bis(4-bromo-6-(((pyridin-2-ylmethyl)amino)methyl)-3,1-phenylene))bis(oxy))bis(methylene))dinicotinonitrile], the IC50 at PD-1/PD-L1 was found to be 0.154 µM. In addition, at PD-1/PD-L1 interaction, the 50% effective concentration (EC50) is 10.4 µM.

Consider `C=CCOc1nc(OCc2cccc(-c3cccc(COc4nc(OCC=C)c(CNC[C@@H](O)CC(=O)O)cc4Br)c3C)c2C)c(Br)cc1CNC[C@@H](O)CC(=O)O` [Example 151, (3S,3′S)-4,4′-((((((2,2′-dimethyl-[1,1′-biphenyl]-3,3′-diyl)bis(methylene))bis(oxy))bis(2-(allyloxy)-5-bromopyridine-6,3-diyl))bis(methylene))bis(azanediyl))bis(3-hydroxybutanoic acid)], for which the 50% inhibitory concentration (IC50) at PD-1/PD-L1 was found to be 0.0022 µM. In addition, the half-maximal effective concentration (EC50) at PD-1/PD-L1 interaction was not below 50 µM.

Regarding `Cc1c(COc2cc(OCc3cncc(C#N)c3)c(CNC[C@@H](O)CC(=O)O)cc2Cl)cccc1-c1cncc(COc2cc(OCc3cncc(C#N)c3)c(CNC[C@@H](O)CC(=O)O)cc2Cl)c1` [Example 208, (S)-4-((4-((5-(3-((4-((((S)-3-Carboxy-2-hydroxypropyl)amino)methyl)-2-chloro-5-((5-cyanopyridin-3-yl)methoxy)phenoxy)methyl)-2-methylphenyl)pyridin-3-yl)methoxy)-5-chloro-2-((5-cyanopyridin-3-yl)methoxy)benzyl)amino)-3-hydroxybutanoic acid], the IC50 on PD-1/PD-L1 was 0.0014 µM. On PD-1/PD-L1 interaction, the EC50 was 10.6 µM.

Regarding `Cc1c(COc2cc(OCc3cncc(C#N)c3)c(CNCCO)cc2Cl)cccc1-c1cccc(-c2ccc(CNCCCC(=O)O)cc2)c1C` [Example 334, 4-(((3″-((2-chloro-5-((5-cyanopyridin-3-yl)methoxy)-4-(((2-hydroxyethyl)amino)methyl)phenoxy)methyl)-2′,2″-dimethyl-[1,1′:3′,1″-terphenyl]-4-yl)methyl)amino)butanoic acid], on PD-1/PD-L1, the half-inhibitory concentration (IC50) was 0.000143 µM.

For the molecule `COc1cc(OCc2cccc(-c3cccc(COc4ccc(CNC[C@@H](O)CC(=O)O)c(OC)n4)c3C)c2C)ccc1CNC[C@@H](O)CC(=O)O` [Example 27, (S)-4-(((6-((3′-((4-((((S)-3-carboxy-2-hydroxypropyl)amino)methyl)-3-methoxyphenoxy)methyl)-2,2′-dimethyl-[1,1′-biphenyl]-3-yl)methoxy)-2-methoxypyridin-3-yl)methyl)amino)-3-hydroxybutanoic acid], the IC50 on PD-1/PD-L1 amounted to 0.0023 µM. For the same molecule, the EC50 on PD-1/PD-L1 interaction came to 25.3 µM.

As for `N#Cc1cncc(COc2nc(OCc3cccc(-c4cccc(COc5nc(OCc6cncc(C#N)c6)c(CNC[C@@H](O)CC(=O)O)cc5Br)c4Cl)c3Cl)c(Br)cc2CNC[C@@H](O)CC(=O)O)c1` [Example 563], the 50% inhibitory concentration (IC50) on PD-1/PD-L1 was 0.000317 µM.

For the molecule `Cc1c(COc2cc(OCc3cncc(C#N)c3)c(CN[C@@H](C)C(=O)O)cc2Cl)cccc1-c1cccc(-c2ccc(OCCN[C@@H](C)C(=O)O)c(C(F)(F)F)c2)c1C` [Example 95, (4-((4″-(2-(((S)-1-carboxyethyl)amino)ethoxy)-2,2′-dimethyl-3″-(trifluoromethyl)-[1,1′:3′,1″-terphenyl]-3-yl)methoxy)-5-chloro-2-((5-cyanopyridin-3-yl)methoxy)benzyl)-L-alanine], the EC50 at PD-1/PD-L1 interaction is 0.639 µM.

For the molecule `Cc1c(COc2nc(OCCc3cc(C#N)ccn3)c(CNC[C@@H](O)CC(=O)O)cc2Br)cccc1-c1cccc(COc2nc(OCCc3cc(C#N)ccn3)c(CNC[C@@H](O)CC(=O)O)cc2Br)c1C` [Example 128, (3S,3′S)-4,4′-((((((2,2′-dimethyl-[1,1′-biphenyl]-3,3′-diyl)bis(methylene))bis(oxy))bis(5-bromo-2-(2-(4-cyanopyridin-2-yl)ethoxy)pyridine-6,3-diyl))bis(methylene))bis(azanediyl))bis(3-hydroxybutanoic acid)], at PD-1/PD-L1 interaction, the concentration giving a half-maximal response (EC50) stood at 0.234 µM.

In the case of `COc1nc(OCc2cccc(-c3cccc(COc4nc(OC)c(CNCC5(O)CC5)cc4Cl)c3C)c2C)c(Cl)cc1CNCC1(O)CC1` [Example 175, 1,1′-(((((((2,2′-dimethyl-[1,1′-biphenyl]-3,3′-diyl)bis(methylene))bis(oxy))bis(5-chloro-2-methoxypyridine-6,3-diyl))bis(methylene))bis(azanediyl))bis(methylene))bis(cyclopropan-1-ol)], the EC50 at PD-1/PD-L1 interaction amounted to 0.808 µM.

Take `COc1nc(OCc2cccc(-c3cccc(COc4nc(OC)c(CNCC(O)C(F)F)cc4Cl)c3C)c2C)c(Cl)cc1CNCC(O)C(F)F` (stereo not drawn) [Example 176, 3,3′-((((((2,2′-dimethyl-[1,1′-biphenyl]-3,3′-diyl)bis(methylene))bis(oxy))bis(5-chloro-2-methoxypyridine-6,3-diyl))bis(methylene))bis(azanediyl))bis(1,1-difluoropropan-2-ol)]: the EC50 at PD-1/PD-L1 interaction amounted to 2.88 µM.

In the case of `COc1nc(OCc2cccc(-c3cccc(COc4nc(OC)c(CNCCNS(C)(=O)=O)cc4Br)c3C)c2C)c(Br)cc1CNCCNS(C)(=O)=O` [Example 266, N,N′-(((((((2,2′-dimethyl-[1,1′-biphenyl]-3,3′-diyl)bis(methylene))bis(oxy))bis(5-bromo-2-methoxypyridine-6,3-diyl))bis(methylene))bis(azanediyl))bis(ethane-2,1-diyl))dimethanesulfonamide], at PD-1/PD-L1 interaction, the 50% effective concentration (EC50) amounted to 1.38 µM.

In the case of `Cc1c(COc2nc(OCc3cccc(C#N)c3)c(CNC[C@@H](O)CC(=O)O)cc2Cl)cccc1-c1cccc(COc2nc(OCc3cccc(C#N)c3)c(CNC[C@@H](O)CC(=O)O)cc2Cl)c1C` [Example 153, (3S,3′S)-4,4′-((((((2,2′-dimethyl-[1,1′-biphenyl]-3,3′-diyl)bis(methylene))bis(oxy))bis(5-chloro-2-((3-cyanobenzyl)oxy)pyridine-6,3-diyl))bis(methylene))bis(azanediyl))bis(3-hydroxybutanoic acid)], at PD-1/PD-L1 interaction, the EC50 came to 0.329 µM.

Regarding `COc1nc(OCc2cccc(-c3cccc(COc4nc(OC)c(CNC(C)(C)C(=O)O)cc4Cl)c3C)c2C)c(Cl)cc1CNC(C)(C)C(=O)O` [Example 97, 2,2′-((((((2,2′-dimethyl-[1,1′-biphenyl]-3,3′-diyl)bis(methylene))bis(oxy))bis(5-chloro-2-methoxypyridine-6,3-diyl))bis(methylene))bis(azanediyl))bis(2-methylpropanoic acid)], at PD-1/PD-L1 interaction, the EC50 was determined as 0.028 µM.

Take `COc1nc(OCc2cccc(-c3cccc(COc4nc(OC)c(CN[C@@](C)(CO)C(=O)O)cc4Cl)c3C)c2C)c(Cl)cc1CN[C@@](C)(CO)C(=O)O` [Example 44, (2S,2′S)-2,2′-((((((2,2′-dimethyl-[1,1′-biphenyl]-3,3′-diyl)bis(methylene))bis(oxy))bis(5-chloro-2-methoxypyridine-6,3-diyl))bis(methylene))bis(azanediyl))bis(3-hydroxy-2-methylpropanoic acid)]: the EC50 at PD-1/PD-L1 interaction was 0.062 µM.

Take `Cc1c(COc2nc(OCc3ccc(F)c(C#N)c3)c(CNC[C@@H](O)CC(=O)O)cc2Br)cccc1-c1cccc(COc2nc(OCc3ccc(F)c(C#N)c3)c(CNC[C@@H](O)CC(=O)O)cc2Br)c1C` [Example 140, (3S,3′S)-4,4′-((((((2,2′-dimethyl-[1,1′-biphenyl]-3,3′-diyl)bis(methylene))bis(oxy))bis(5-bromo-2-((3-cyano-4-fluorobenzyl)oxy)pyridine-6,3-diyl))bis(methylene))bis(azanediyl))bis(3-hydroxybutanoic acid)]: the EC50 on PD-1/PD-L1 interaction came out at 0.239 µM.

On to `COc1nc(OCc2cccc(-c3cccc(COc4nc(OC)c(CNCc5nnc(C)o5)cc4Cl)c3C)c2C)c(Cl)cc1CNCc1nnc(C)o1` [Example 170, 1,1′-((((2,2′-dimethyl-[1,1′-biphenyl]-3,3′-diyl)bis(methylene))bis(oxy))bis(5-chloro-2-methoxypyridine-6,3-diyl))bis(N-((5-methyl-1,3,4-oxadiazol-2-yl)methyl)methanamine)], for which the half-maximal effective concentration (EC50) on PD-1/PD-L1 interaction was not below 50 µM.

`C=CCOC(=O)[C@H]1CCN[C@H]1c1cc(Cl)c(OCc2cccc(-c3cccc(COc4nc(OC)c([C@@H]5NCC[C@@H]5C(=O)O)cc4Cl)c3C)c2C)nc1OC` [Example 105, (2R,3S)-2-(6-((3′-(((5-((2R,3S)-3-((allyloxy)carbonyl)pyrrolidin-2-yl)-3-chloro-6-methoxypyridin-2-yl)oxy)methyl)-2,2′-dimethyl-[1,1′-biphenyl]-3-yl)methoxy)-5-chloro-2-methoxypyridin-3-yl)pyrrolidine-3-carboxylic acid]: the concentration for a half-maximal effect (EC50) at PD-1/PD-L1 interaction is not below 50 µM.

As a reminder, the IC50 is the concentration that gives 50% inhibition. As a reminder, the EC50 is the midpoint of the concentration-response curve.
